Source: PMC5228037, “Discovery and Mechanistic Characterization of Selective Inhibitors of H2S-producing Enzyme: 3-Mercaptopyruvate Sulfurtransferase (3MST) Targeting Active-site Cysteine Persulfide” (Scientific Reports, 2017)

Molecular target: T1, recombinant CBS (Rattus norvegicus, UniProt P32232)
T1 construct: GST (N, cleaved yes); made in house; host or cells: E. coli DH5α
T1 sequence (P32232 1-561): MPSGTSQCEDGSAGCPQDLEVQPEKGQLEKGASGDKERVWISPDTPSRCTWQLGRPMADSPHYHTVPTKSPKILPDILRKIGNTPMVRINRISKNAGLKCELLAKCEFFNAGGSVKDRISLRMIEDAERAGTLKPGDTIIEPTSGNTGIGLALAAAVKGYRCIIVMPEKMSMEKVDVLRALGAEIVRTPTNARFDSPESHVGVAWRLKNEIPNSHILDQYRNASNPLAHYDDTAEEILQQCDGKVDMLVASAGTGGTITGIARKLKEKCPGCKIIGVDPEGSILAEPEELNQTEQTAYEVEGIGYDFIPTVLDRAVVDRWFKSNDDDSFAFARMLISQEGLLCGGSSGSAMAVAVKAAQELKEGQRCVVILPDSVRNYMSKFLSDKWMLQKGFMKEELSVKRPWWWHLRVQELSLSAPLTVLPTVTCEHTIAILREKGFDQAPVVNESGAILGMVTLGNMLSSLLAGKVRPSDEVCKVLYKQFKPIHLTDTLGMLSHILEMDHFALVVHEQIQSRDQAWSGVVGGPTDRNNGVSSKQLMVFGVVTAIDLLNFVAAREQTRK
Experiment: Inhibitory activity towards purified CBS by gas chromatography
Assay type: biochemical
Details: 100 μM compound, 10 mM L-cysteine and DL-homocysteine
Experimental: Figure 2 Selectivity assessment of hit compounds for 3MST over other H2S/polysulfides-producing enzymes and rhodanese. (a) 3MST-Inhibitory activity of hit compounds at 10 and 100 μM in cell lysate of 3MST-expressing HEK293 cells. 100 μM 3MP and 100 μM DTT were added to the solution containing 0.1% DMSO as a cosolvent, and the mixture was incubated at 37 °C for 15 min. H2S production was measured by gas chromatography. All data are presented as the mean ± S.D. (100 μM: n = 3 or 4; 10 μM: n = 3). (b) Selectivity assessment of hit compounds at 100 μM towards CBS and CSE. Only DMSO was added to the control sample instead of DMSO solution containing hit compounds. H2S production was monitored by gas chromatography. All data are presented as the mean (n = 3). (c) Detection method for rhodanese activity (Sörbo method). (d) Selectivity assessment of hit compounds towards rhodanese. The results are mean ± S.D. (n = 4, three times). These values were determined based upon the absorbance of [Fe(SCN)3] at 460 nm (Sӧrbo method). Bovine rhodanese 1.3–1.7 units/mL, substrate: 52 mM Na2S2O3, 50 mM KCN, 0.004% (w/v) BSA, 100 μM compound and DMSO 1% (v/v) in 88 mM potassium phosphate buffer (pH 8.6) at room temperature for 5 min incubation. (e) Fluorescence confocal microscopic images of live COS7 cells transfected with 3MST or an empty vector[9] as a control. Cells were incubated with 50 μM SSP4, a fluorescent probe for sulfane sulfur, and 10 μM, 1 μM, 0.5 μM, 0.1 or 0 μM compound 3 in DMEM containing 0.6% DMSO for 30 min, then washed with HBSS and placed in fresh DMEM with 0‒10 μM compound 3 (Pre). 500 μM 3MP was added to the cells and the cells were incubated for 10 min (10 min). (f) Graphic representation of (e). F/F0 was calculated by dividing the fluorescence intensity of cells after addition of 500 μM 3MP (10 min) by that of cells before addition of 500 μM 3MP (Pre), then the mean F/F0 was determined from 5 cells. All data represent the mean ± standard error of the mean (SEM) of three experiments.
GST-tagged rat CSE-HA or rat CBS-HA was expressed in E. coli DH5α as follows. E. coli DH5α transformed with the pGEX-rCSE-HA or pGEX-rCBS-HA plasmid was cultured overnight in LB medium containing 100 μg/mL ampicillin (and 0.3 mM 5-aminolevulinic acid, for CBS) at 37 °C, and the 120 mL culture was inoculated into 2400 mL of LB medium. Further growth of the culture was performed at 37 °C with vigorous shaking until OD600 reached 0.8. IPTG was added to the E. coli DH5α culture at a final concentration of 0.1 mM and incubation was continued at 18 °C. […]

inhibition at 100 µM (read-out: Inhibition of recombinant CBS enzymatic activity (H2S production)) [%] | Inhibition of recombinant CBS enzymatic activity (H2S production) | SMILES
~25 | – | NC(=O)c1ccsc1NC(=O)CSc1nc2ccccc2c(=O)[nH]1 [compound 1]
– | enhanced H2S production | Cc1sc2nc(SCC(=O)c3ccc(O)cc3O)[nH]c(=O)c2c1C [compound 2]
– | almost inactive | Cc1cc(=O)[nH]c(SCC(=O)c2cccc3ccccc23)n1 [compound 3]
– | enhancement of H2S production | O=C(O)c1cccc(NS(=O)(=O)c2ccccc2)c1 [compound 5]
